Assay [1] deals with T1, 14-3-3/ChREBP complex (Homo sapiens, UniProt P31946+Q9NP71).
T1 sequence (P31946 1-246): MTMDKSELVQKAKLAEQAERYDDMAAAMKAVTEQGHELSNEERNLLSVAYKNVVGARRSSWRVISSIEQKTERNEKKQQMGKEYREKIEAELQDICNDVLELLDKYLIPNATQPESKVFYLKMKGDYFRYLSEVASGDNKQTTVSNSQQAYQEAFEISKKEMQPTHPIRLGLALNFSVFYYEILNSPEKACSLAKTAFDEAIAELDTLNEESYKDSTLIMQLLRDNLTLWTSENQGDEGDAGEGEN
T1 sequence (Q9NP71 117-142 partner limits assumed): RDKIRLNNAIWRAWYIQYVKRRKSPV
Put plainly: 2D FA titrations fitted to thermodynamic cooperativity model. Conditions: for α1 / α / Kd: 2D FA model fit; for α1: dimeric 14-3-3 model; for Kd: KDI; for cooperativity (α) factor: 2D FA, 14-3-3β titrated to FITC-labeled MG with varying ChREBP peptide, KD^II fixed 1.5 µM, mean of n = 2.

The target in assay [2] is T2, 14-3-3γ (Homo sapiens, UniProt P61981).
T2 sequence (P61981 1-247): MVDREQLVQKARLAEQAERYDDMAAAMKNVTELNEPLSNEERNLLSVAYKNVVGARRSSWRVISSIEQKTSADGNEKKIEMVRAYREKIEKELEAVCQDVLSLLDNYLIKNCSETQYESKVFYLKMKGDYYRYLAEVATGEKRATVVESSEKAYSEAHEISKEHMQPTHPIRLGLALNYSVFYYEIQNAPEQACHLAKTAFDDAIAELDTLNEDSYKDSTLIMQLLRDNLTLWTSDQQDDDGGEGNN
Put plainly: Surface plasmon resonance, Twinstrep-tagged 14-3-3γ captured on StrepTactinXT chip. Conditions: for KD, affinity fit: SPR steady-state 1:1 fit; for kon: pH 7.4, read-out: ka, kinetic fit. In general terms: SPR reads the build-up and loss of mass on a sensor chip optically.
Experimental: The SPR experiments were performed at 25 °C using a Biacore X100 (Cytiva) and a 200 nm Strep-Tactin XT derivatized linear polycarboxylate hydrogel chip, medium charge density (XanTec Bioanalytics). All proteins and peptides were dissolved in fresh running buffer prepared with ultrapure water and filtered through a 0.2 μm filter (10 mM HEPES pH 7.4, 200 mM NaCl, 50 μM EDTA, 0.005% P20). First the surface was conditioned with a 1 min injection of 3 M Guanidine HCl. The Biacore X100 was primed with running buffer. […] Flow cell 1 was left blank as a reference surface. […] Between cycles of one multi-cycle measurement, no regeneration step was performed due to the complete dissociation of the analyte. […] The data collection rate of the instrument is 1 datapoint/sec. […] All parameters were fitted using global fitting, including the Rmax, because a single immobilization was used for all analyte concentrations. The RI was set constant at 0 RU. Next to kinetic fitting, the affinity fit was made using a 1:1 binding model by plotting the response (RU) at steady state over the analyte concentration (Fig. S2).

The target of assay [3] is T2, 14-3-3γ. Kind of assay: Isothermal titration calorimetry, peptide titrated to 14-3-3γ. It is filed as binding. Conditions: ITC, 200 μM peptide titrated to 20 μM 14-3-3γ, mean ± SD, n=3; for ΔS: 25 mM HEPES pH 8.0, 100 mM NaCl, 10 mM MgCl2, 500 µM TCEP, 25 °C; for ΔG / ΔH: pH 8.0, 25 °C. Here is the method:
Final dialysis fluid from protein expression was frozen as 2 mL aliquots to serve as ITC buffer (25 mM HEPES pH 8.0, 100 mM NaCl, 10 mM MgCl2, 500 µM TCEP). 14-3-3γ and peptide were dissolved and diluted in this buffer to 20 μM and 200 μM, respectively. Samples were degassed for 10 min prior to measurement at 450 mmHg. The reference cell was filled with 300 µL degassed MilliQ and the sample cell was filled with 300 µL of peptide or protein mixture. Syringe was loaded with at least 200 µL protein or peptide sample. Measurements were performed on an Affinity ITC LV (TA instruments), with injection size set to 2 µL, stirring speed of 125 rpm and temperature at 25 ̊C. The baseline was automatically adjusted with NITPIC, analysis of data was done in SEDPHAT, and images were produced with GUSSI software. Data and errors represent mean ± SD, n=3 replicates.
For orientation: Isothermal titration calorimetry measures the heat released or taken up as one component is titrated into another.

The target of assay [4] is T3, 14-3-3β (Homo sapiens, UniProt P31946).
T3 construct: The full-length human 14-3-3β and γ proteins; made in house; host or cells: Escherichia coli BL21(DE3)
T3 sequence (P31946 1-246): T1 sequence (P31946 1-246)
Put plainly: FA titration of 14-3-3β to FITC-labeled macrocycle (EC50 used for selectivity assay). Conditions: 14-3-3β concentration equal to/around EC50 for FITC-labeled macrocycle (10 nM). It is filed as binding. Here is the method: For the 2D titrations, 14-3-3β was titrated in a 2-fold dilution series (starting at 250 µM) to a mix of fluorescein-labeled macrocycle (5 nM) against varying fixed concentrations of ChREBP (2-fold dilution starting from 20 µM (replicate 1) or 10 µM (replicate 2)).
Dilution series were made in a polystyrene (non-binding) low-volume Corning Black Round Bottom 384-well plates (Corning 4514 or 4511). […] Wells containing 5 nm FITC-macrocycle were used to set as G-factor. All data were analyzed using Origin2023b and fitted using a four-parameter logistic model. Each measurement was performed in three independent experiments.

In assay [5] the target is T2, 14-3-3γ. Kind of assay: Fluorescence Anisotropy protein titration of 14-3-3γ to FITC-labeled macrocycles. The assay is classed as binding. Conditions: FA, 14-3-3γ titrated (2-fold from 250 µM) to FITC-labeled peptide (10 nM in Fig. 2a, 5 nM in method), 10 mM HEPES pH 7.4, 150 mM NaCl, 0.1% Tween20, 0.1% BSA, rt, mean ± SD, n = 3. As for the experimental part:
Wells containing 5 nm FITC-macrocycle were used to set as G-factor. All data were analyzed using Origin2023b and fitted using a four-parameter logistic model. Each measurement was performed in three independent experiments.

The subject of assay [6] is 14-3-3β/macrocycle complex. Put plainly: FA selectivity assay, acetylated 14-3-3 client peptides titrated to 14-3-3β/macrocycle complex. The assay is classed as binding, human. Conditions: acetylated client peptide titrated from 100 μM to 14-3-3β (at EC50) and FITC-labeled macrocycle (10 nM), n = 3.
Setting [7] is: replicate 1 (ChREBP from 20 μM).
Where [8] appears, read: replicate 2 (ChREBP from 10 μM).
[9] abbreviates: SPR, 1:1 model, 25 °C, 10 mM HEPES pH 7.4, 200 mM NaCl, replicate 1.
Setting [10] is: SPR, 1:1 model, 25 °C, pH 7.4, average ± SD, n=2, SD.
Where [11] appears, read: SPR, 1:1 model, 25 °C, pH 7.4, replicate 1.
[12] abbreviates: SPR, 1:1 model, 25 °C, pH 7.4, replicate 2.

In the case of `NCCCC[C@@H](C(=O)NCCC(=O)N[C@@H](CCCCNC(=S)Nc1ccc2c(c1)C(=O)OC21c2ccc(O)cc2Oc2cc(O)ccc21)C(N)=O)N1CCc2cn(nn2)-c2ccc(cc2)C[C@H](NC(=O)[C@@H](N)COP(=O)(O)O)C(=O)N[C@@H](CO)CC(=O)NCCC(=O)N[C@@H](Cc2ccc([N+](=O)[O-])cc2)C1=O` [Macrocycle 2], the values for the α1 in assay [1] (replicate 1) and in assay [1] (replicate 2) were 18.8 and 8.3, respectively. Further, the figures for the α in assay [1] (setting [7]) and in assay [1] (setting [8]) were 46 and 61, respectively.
The Kd is the concentration at which binding is half-saturated. High values mean lower affinity, low ones higher affinity. In turn, `NCCCC[C@@H](C(N)=O)N1CCCc2cn(nn2)-c2ccc(cc2)C[C@H](NC(=O)[C@@H](N)COP(=O)(O)O)C(=O)N[C@@H](CO)CC(=O)NCCC(=O)N[C@@H](Cc2ccc([N+](=O)[O-])cc2)C1=O` [Macrocycle 3] yielded a Kd in assay [2] (KD, kinetic fit, SPR, 1:1 model, 25 °C, pH 7.4, average ± SD, n=2, SD) of 230 nM. The “KD, affinity fit” value in assay [2] (25 °C, pH 7.4, replicate 1) came out at 228 nM; in assay [2] (25 °C, pH 7.4, replicate 2), 253 nM. Besides, the “ka, kinetic fit” value in assay [2] (setting [9]) turned out to be 629000 M⁻¹ s⁻¹; in assay [2] (setting [12]), 556000 M⁻¹ s⁻¹. Also, the “kd, kinetic fit” value in assay [2] (setting [10]) stood at 0.13 ± 0.01 s⁻¹; in assay [2] (setting [11]) it was 0.1384 s⁻¹; in assay [2] (setting [12]), 0.1296 s⁻¹. In addition, the results for the “KD, kinetic fit” value in assay [2] (setting [11]) and in assay [2] (setting [12]) were 220 nM and 233 nM, respectively. Further, the kon in assay [2] (SD) came to 590000 M⁻¹ s⁻¹. In addition, the α1 came out at 11.7 in assay [1] (replicate 1) and 11 in assay [1] (replicate 2). The α worked out at 12.3 in assay [1] (setting [7]) and 11 in assay [1] (setting [8]). The ΔS in assay [3] was 5.9 ± 0.89 cal/(mol·K). The compound also displayed a ΔG in assay [3] of -9.24 ± 0.028 kcal/mol. Moreover, the ΔH in assay [3] is -7.5 ± 0.70 kcal/mol.
In the case of `NCCCC[C@@H](C(N)=O)N1CCCCc2cn(nn2)-c2ccc(cc2)C[C@H](NC(=O)[C@@H](N)COP(=O)(O)O)C(=O)N[C@@H](CO)CC(=O)NCCC(=O)N[C@@H](Cc2ccc([N+](=O)[O-])cc2)C1=O` [Macrocycle 4], the “KD, affinity fit” value in assay [2] (25 °C, pH 7.4, replicate 1) was 1180 nM; in assay [2] (25 °C, pH 7.4, replicate 2) it was 1130 nM. The “ka, kinetic fit” value was 282000 M⁻¹ s⁻¹ in assay [2] (setting [9]) and 290000 M⁻¹ s⁻¹ in assay [2] (setting [12]). Further, the “kd, kinetic fit” value was 0.31 ± 0.01 s⁻¹ in assay [2] (setting [10]), 0.3198 s⁻¹ in assay [2] (setting [11]) and 0.2988 s⁻¹ in assay [2] (setting [12]). The entries for the “KD, kinetic fit” value in assay [2] (setting [11]) and in assay [2] (setting [12]) were 1140 nM and 1030 nM, respectively. For the same compound, the “association rate (k on) fold increase compared to pepD” value in assay [2] (SPR, 14-3-3γ) turned out to be 3.5 fold. The kon in assay [2] (SD) is 290000 M⁻¹ s⁻¹. For the same compound, the values for the α1 in assay [1] (replicate 1) and in assay [1] (replicate 2) were 11.8 and 13.5, respectively. Besides, the α in assay [1] (setting [7]) stood at 42.5; in assay [1] (setting [8]), 41.3. For the same compound, the Kd in assay [1] (setting [7]) and in assay [1] (setting [8]) was 5000 nM in each case. For the same compound, the ΔS in assay [3] is 2.9 ± 0.78 cal/(mol·K). Further, the ΔG in assay [3] is listed as -8.15 ± 0.10 kcal/mol. The compound also had a ΔH in assay [3] of -7.4 ± 0.44 kcal/mol.
As for `NCCCC[C@@H](C(=O)NCCC(=O)N[C@@H](CCCCNC(=S)Nc1ccc2c(c1)C(=O)OC21c2ccc(O)cc2Oc2cc(O)ccc21)C(N)=O)N1Cc2cn(nn2)-c2ccc(cc2)C[C@H](NC(=O)[C@@H](N)COP(=O)(O)O)C(=O)N[C@@H](CO)CC(=O)NCCC(=O)N[C@@H](Cc2ccc([N+](=O)[O-])cc2)C1=O` [Macrocycle F1], the α1 in assay [1] (replicate 1) worked out at 82.8; in assay [1] (replicate 2) it was 85.4. Besides, the α in assay [1] (setting [7]) is 314; in assay [1] (setting [8]) it was 363. For the same compound, the “cooperativity (α) factor” value in assay [1] was found to be 339 ± 35.
What is called EC50 is the concentration at which the effect is half-maximal. Turning to `NCCCC[C@@H](C(=O)NCCC(=O)N[C@@H](CCCCNC(=S)Nc1ccc2c(c1)C(=O)OC21c2ccc(O)cc2Oc2cc(O)ccc21)C(N)=O)N1CCc2cn(nn2)-c2ccc(cc2)C[C@H](NC(=O)[C@@H](N)COP(=O)(O)O)C(=O)N[C@@H](CO)CC(=O)NCCC(=O)N[C@@H](Cc2ccc([N+](=O)[O-])cc2)C1=O` [Macrocycle F2], the EC50 in assay [4] is 7000 nM.
Regarding `NCCCC[C@@H](C(=O)NCCC(=O)N[C@@H](CCCCNC(=S)Nc1ccc2c(c1)C(=O)OC21c2ccc(O)cc2Oc2cc(O)ccc21)C(N)=O)N1CCCc2cn(nn2)-c2ccc(cc2)C[C@H](NC(=O)[C@@H](N)COP(=O)(O)O)C(=O)N[C@@H](CO)CC(=O)NCCC(=O)N[C@@H](Cc2ccc([N+](=O)[O-])cc2)C1=O` [Macrocycle F3], the “cooperativity (α) factor” value in assay [1] was determined as 12 ± 1. Moreover, in assay [5], the Kd stood at 230 ± 60 nM.
As for `NCCCC[C@@H](C(=O)NCCC(=O)N[C@@H](CCCCNC(=S)Nc1ccc2c(c1)C(=O)OC21c2ccc(O)cc2Oc2cc(O)ccc21)C(N)=O)N1CCCCc2cn(nn2)-c2ccc(cc2)C[C@H](NC(=O)[C@@H](N)COP(=O)(O)O)C(=O)N[C@@H](CO)CC(=O)NCCC(=O)N[C@@H](Cc2ccc([N+](=O)[O-])cc2)C1=O` [Macrocycle F4], in assay [1], the “cooperativity (α) factor” value turned out to be 42 ± 1. In assay [4], the EC50 amounted to 2000 nM.
Turning to “Ac-RDKIRLNNAIWRAWYIQYVKRRKSPV-NH2 [ChREBP, acetylated ChREBP peptide purchased from GenScript, 14-3-3 client peptide]”, the “effect of client peptide on 14-3-3β/macrocycle complex” value in assay [6] is recorded as “Stabilization”.

Values taken from paper PMC12865133, “Macrocyclic Molecular Glues for the 14‐3‐3/ChREBP Interaction: Affinity and Cooperativity in an Inverse Relationship” (Angewandte Chemie (International Ed. in English), 2025).
